Experimental data as given in PubChem BioAssay AID1963430 (Molecular Pharmacology Branch, DTP, NCI, 2024).
pIC50: −log10 of the molar value.

System: 521955-158-R2-J5-PDC complex spheroid growth, % test/control
Assay: Anticancer human tumor 521955-158-R2-J5-PDC patient-derived pancreatic carcinoma cell line growth inhibition [Asc]
Conditions: for pIC50: curve of first compound; for viability, T/C: stronger effect = lower value
Method in brief: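 Concentration series start at each agent's clinical Cmax, or at 10 microM when none is established, and drop in half-log steps; agents are applied alone or together to complex spheroids built with HUVEC and hMSC.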

[1] = second compound 0.1 µM, first compound 0.00316 µM
[2] = second compound 0.1 µM, first compound 0.01 µM
[3] = second compound 0.1 µM, first compound 0.0316 µM
[4] = second compound 0.1 µM, first compound 0.1 µM
[5] = second compound 0.316 µM, first compound 0.00316 µM
[6] = second compound 0.316 µM, first compound 0.01 µM
[7] = second compound 0.316 µM, first compound 0.0316 µM
[8] = second compound 0.316 µM, first compound 0.1 µM
[9] = second compound 1 µM, first compound 0.00316 µM
[10] = second compound 1 µM, first compound 0.01 µM
[11] = second compound 1 µM, first compound 0.0316 µM
[12] = second compound 1 µM, first compound 0.1 µM
[13] = second compound 3.16 µM, first compound 0.00316 µM
[14] = second compound 3.16 µM, first compound 0.01 µM
[15] = second compound 3.16 µM, first compound 0.0316 µM
[16] = second compound 3.16 µM, first compound 0.1 µM
[17] = second compound 10 µM, first compound 0.00316 µM
[18] = second compound 10 µM, first compound 0.01 µM
[19] = second compound 10 µM, first compound 0.0316 µM
[20] = second compound 10 µM, first compound 0.1 µM
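Also: spheroids exposed to agents for 7 days before readout.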
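For viability, T/C in this document: 100% = DMSO vehicle control viability.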

COc1c(OCCCN2CCOCC2)ccc2c3n(c(=NC(=O)c4cnc(N)nc4)nc12)CCN3 + Cc1c(S(C)(=O)=O)c(-c2cc(F)cc(N3CCN(c4ccc(NS(=O)(=O)c5ccc(NC(CCN6CCC(C(=O)OCCCP(=O)(O)O)CC6)CSc6ccccc6)c(S(=O)(=O)C(F)(F)F)c5)cc4)CC3)c2)c(-c2ccc(Cl)cc2)n1C(C)C
pIC50 (second compound 0.1 µM): 8.09
pIC50 (second compound 0.316 µM): 8.02
pIC50 (second compound 1 µM): > 8.50
pIC50 (second compound 3.16 µM): > 8.50
pIC50 (second compound 10 µM): 6.76
viability, T/C [1]: 58.2%
viability, T/C [2]: 52.3%
viability, T/C [3]: 30.2%
viability, T/C [4]: 31.4%
viability, T/C (second compound 0.1 µM, first compound 0.316 µM): 18%
viability, T/C (second compound 0.1 µM, first compound 1 µM): 8.91%
viability, T/C [5]: 65.2%
viability, T/C [6]: 53.1%
viability, T/C [7]: 27.2%
viability, T/C [8]: 31.2%
viability, T/C (second compound 0.316 µM, first compound 0.316 µM): 13.1%
viability, T/C (second compound 0.316 µM, first compound 1 µM): 10.8%
viability, T/C [9]: 39.3%
viability, T/C [10]: 39.6%
viability, T/C [11]: 38.9%
viability, T/C [12]: 33.2%
viability, T/C (second compound 1 µM, first compound 0.316 µM): 11%
viability, T/C (second compound 1 µM, first compound 1 µM): 3.88%
viability, T/C [13]: 45.4%
viability, T/C [14]: 50.5%
viability, T/C [15]: 39.9%
viability, T/C [16]: 32%
viability, T/C (second compound 3.16 µM, first compound 0.316 µM): 14%
viability, T/C (second compound 3.16 µM, first compound 1 µM): 2.79%
viability, T/C [17]: 189%
viability, T/C [18]: 133%
viability, T/C [19]: 166%
viability, T/C [20]: 87.5%
viability, T/C (second compound 10 µM, first compound 0.316 µM): 11.1%
viability, T/C (second compound 10 µM, first compound 1 µM): 7%

NC(=O)C(=Cn1cnc(-c2cc(C(F)(F)F)cc(C(F)(F)F)c2)n1)c1cncnc1 + Cc1c(S(C)(=O)=O)c(-c2cc(F)cc(N3CCN(c4ccc(NS(=O)(=O)c5ccc(NC(CCN6CCC(C(=O)OCCCP(=O)(O)O)CC6)CSc6ccccc6)c(S(=O)(=O)C(F)(F)F)c5)cc4)CC3)c2)c(-c2ccc(Cl)cc2)n1C(C)C
pIC50 (second compound 0.1 µM): 8.71
pIC50 (second compound 0.316 µM): > 9.02
pIC50 (second compound 1 µM): 8.87
pIC50 (second compound 3.16 µM): 8.90
pIC50 (second compound 10 µM): 7.60
viability, T/C (second compound 0.1 µM, first compound 0.000949 µM): 77.2%
viability, T/C (second compound 0.1 µM, first compound 0.003 µM): 33.3%
viability, T/C (second compound 0.1 µM, first compound 0.00949 µM): 28.4%
viability, T/C (second compound 0.1 µM, first compound 0.03 µM): 20.9%
viability, T/C (second compound 0.1 µM, first compound 0.0949 µM): 22.3%
viability, T/C (second compound 0.1 µM, first compound 0.3 µM): 28%
viability, T/C (second compound 0.316 µM, first compound 0.000949 µM): 44.5%
viability, T/C (second compound 0.316 µM, first compound 0.003 µM): 48%
viability, T/C (second compound 0.316 µM, first compound 0.00949 µM): 30%
viability, T/C (second compound 0.316 µM, first compound 0.03 µM): 23.2%
viability, T/C (second compound 0.316 µM, first compound 0.0949 µM): 17.2%
viability, T/C (second compound 0.316 µM, first compound 0.3 µM): 24.1%
viability, T/C (second compound 1 µM, first compound 0.000949 µM): 54.3%
viability, T/C (second compound 1 µM, first compound 0.003 µM): 40.5%
viability, T/C (second compound 1 µM, first compound 0.00949 µM): 21.4%
viability, T/C (second compound 1 µM, first compound 0.03 µM): 17.7%
viability, T/C (second compound 1 µM, first compound 0.0949 µM): 14.4%
viability, T/C (second compound 1 µM, first compound 0.3 µM): 14.8%
viability, T/C (second compound 3.16 µM, first compound 0.000949 µM): 53.2%
viability, T/C (second compound 3.16 µM, first compound 0.003 µM): 40%
viability, T/C (second compound 3.16 µM, first compound 0.00949 µM): 22.6%
viability, T/C (second compound 3.16 µM, first compound 0.03 µM): 13.5%
viability, T/C (second compound 3.16 µM, first compound 0.0949 µM): 9.75%
viability, T/C (second compound 3.16 µM, first compound 0.3 µM): 13.1%
viability, T/C (second compound 10 µM, first compound 0.000949 µM): 143%
viability, T/C (second compound 10 µM, first compound 0.003 µM): 106%
viability, T/C (second compound 10 µM, first compound 0.00949 µM): 91.4%
viability, T/C (second compound 10 µM, first compound 0.03 µM): 40.3%
viability, T/C (second compound 10 µM, first compound 0.0949 µM): 17.1%
viability, T/C (second compound 10 µM, first compound 0.3 µM): 10.8%

NC1CCC(NC2CC2c2ccccc2)CC1 (stereo not given) + Cc1c(S(C)(=O)=O)c(-c2cc(F)cc(N3CCN(c4ccc(NS(=O)(=O)c5ccc(NC(CCN6CCC(C(=O)OCCCP(=O)(O)O)CC6)CSc6ccccc6)c(S(=O)(=O)C(F)(F)F)c5)cc4)CC3)c2)c(-c2ccc(Cl)cc2)n1C(C)C
pIC50 (second compound 0.1 µM): 8.61
pIC50 (second compound 0.316 µM): > 9.50
pIC50 (second compound 1 µM): > 9.50
pIC50 (second compound 3.16 µM): > 9.50
pIC50 (second compound 10 µM): 7.66
viability, T/C (second compound 0.1 µM, first compound 0.000316 µM): 58%
viability, T/C (second compound 0.1 µM, first compound 0.001 µM): 46.2%
viability, T/C [1]: 56.8%
viability, T/C [2]: 48.5%
viability, T/C [3]: 37.8%
viability, T/C [4]: 48.4%
viability, T/C (second compound 0.316 µM, first compound 0.000316 µM): 40.8%
viability, T/C (second compound 0.316 µM, first compound 0.001 µM): 36.3%
viability, T/C [5]: 47.8%
viability, T/C [6]: 38.4%
viability, T/C [7]: 46%
viability, T/C [8]: 49%
viability, T/C (second compound 1 µM, first compound 0.000316 µM): 27.9%
viability, T/C (second compound 1 µM, first compound 0.001 µM): 33.9%
viability, T/C [9]: 34.6%
viability, T/C [10]: 34.8%
viability, T/C [11]: 39.7%
viability, T/C [12]: 34.6%
viability, T/C (second compound 3.16 µM, first compound 0.000316 µM): 41.6%
viability, T/C (second compound 3.16 µM, first compound 0.001 µM): 32.8%
viability, T/C [13]: 25.4%
viability, T/C [14]: 26.5%
viability, T/C [15]: 30.7%
viability, T/C [16]: 33.9%
viability, T/C (second compound 10 µM, first compound 0.000316 µM): 58%
viability, T/C (second compound 10 µM, first compound 0.001 µM): 48.3%
viability, T/C [17]: 31.8%
viability, T/C [18]: 71.6%
viability, T/C [19]: 44.7%
viability, T/C [20]: 39.1%
